According to PMC6797481, “Identification of an allosteric binding site on the human glycine transporter, GlyT2, for bioactive lipid analgesics” (eLife, 2019):
Where a chain is given by its changes, count along the chain named.

Key:
Type in all cases: cell-based
Settings in all cases: for % Max. inhibition: mean ± SEM
[1] = target: T1, GlyT2 I545L mutant (Homo sapiens, UniProt Q9Y345, I545L); test: Glycine transport currents, two electrode voltage clamp, Xenopus laevis oocytes expressing GlyT2 I545L
T1 construct: expressed in transfected cells; host or cells: Xenopus laevis oocytes (cRNA injection)
T1 sequence (Q9Y345 1-797 I545L): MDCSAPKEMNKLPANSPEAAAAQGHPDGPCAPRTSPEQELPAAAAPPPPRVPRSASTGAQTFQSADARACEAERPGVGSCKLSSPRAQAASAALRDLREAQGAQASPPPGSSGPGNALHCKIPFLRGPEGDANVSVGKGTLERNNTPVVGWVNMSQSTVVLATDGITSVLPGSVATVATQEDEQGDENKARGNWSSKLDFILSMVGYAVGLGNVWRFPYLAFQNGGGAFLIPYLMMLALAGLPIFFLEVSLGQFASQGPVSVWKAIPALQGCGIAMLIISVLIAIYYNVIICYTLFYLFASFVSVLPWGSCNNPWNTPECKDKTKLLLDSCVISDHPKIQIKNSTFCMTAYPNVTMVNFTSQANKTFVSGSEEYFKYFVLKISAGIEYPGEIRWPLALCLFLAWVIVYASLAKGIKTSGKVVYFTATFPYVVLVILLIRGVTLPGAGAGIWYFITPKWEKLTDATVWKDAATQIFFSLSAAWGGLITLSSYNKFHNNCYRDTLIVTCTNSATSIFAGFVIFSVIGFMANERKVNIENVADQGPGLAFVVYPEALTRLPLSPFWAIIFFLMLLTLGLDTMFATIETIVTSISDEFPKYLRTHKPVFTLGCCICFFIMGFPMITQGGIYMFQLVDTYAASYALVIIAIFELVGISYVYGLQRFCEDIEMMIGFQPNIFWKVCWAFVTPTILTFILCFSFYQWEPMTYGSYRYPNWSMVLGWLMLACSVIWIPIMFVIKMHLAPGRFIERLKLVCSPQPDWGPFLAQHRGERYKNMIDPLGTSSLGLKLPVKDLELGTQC
Procedure: (§1) Glycine was first applied to establish maximal transport current.
(§2) Compounds were tested for inhibition of glycine transport on Xenopus laevis oocytes expressing mutant GlyT1 and GlyT2 transporters. n values are in brackets, with measurements taken from at least 2 batches of oocytes.

[2] = target: T2, GlyT2 V432A mutant (Homo sapiens, UniProt Q9Y345, V432A); test: Glycine transport currents, two electrode voltage clamp, oocytes expressing GlyT2 V432A
T2 construct: expressed in transfected cells; host or cells: Xenopus laevis oocytes (cRNA injection)
T2 sequence (Q9Y345 1-797 V432A): T1 sequence (Q9Y345 1-797 I545L) with V432A, L545I
Procedure: as §1, §2

[3] = target: T3, GlyT2 L569F mutant (Homo sapiens, UniProt Q9Y345, L569F); test: Glycine transport currents, two electrode voltage clamp, oocytes expressing GlyT2 L569F
T3 construct: expressed in transfected cells; host or cells: Xenopus laevis oocytes (cRNA injection)
T3 sequence (Q9Y345 1-797 L569F): T1 sequence (Q9Y345 1-797 I545L) with L545I, L569F
Procedure: as §1, §2

[4] = GlyT2 I545L, greater than maximum concentration applied (footnote a)
[5] = GlyT2 V432A, greater than maximum concentration applied (footnote a)

| Structure (SMILES) | IC50 [1, 4] [µM] | % Max. inhibition ([2]; GlyT2 V432A) | IC50 ([3]; GlyT2 L569F, mean (95% CI)) [µM] | % Max. inhibition ([3]; GlyT2 L569F) | % Max. inhibition ([1]; GlyT2 I545L) | IC50 [2, 5] [µM] | other results |
| --- | --- | --- | --- | --- | --- | --- | --- |
| CCCCCCCC/C=C\CCCCCCCC(=O)N[C@H](C(=O)O)C(C)C [oleoyl l-Valine] | > 10 |  |  |  |  |  | % Max. inhibition (% inhibition at the highest concentration of inhibitor used) ([1]; GlyT2 I545L, footnote b): 22.5 ± 8.0^b (p=0.0001) % |
| CCCCCCCC/C=C\CCCCCCCC(=O)N[C@@H](CCCCN)C(=O)O [oleoyl l-Lysine] |  | 71.9 ± 1.9 (p=0.0001) % | 0.301 | 76.8 ± 5.8 (p=0.4504) % | 80.7% |  | IC50 ([2]; GlyT2 V432A, mean (95% CI)): 0.0684 µM; fold lower potency at I545L ([1]; GlyT2 I545L compared with WT GlyT2): ~ 17 fold; IC50 ([1]; GlyT2 I545L, mean (95% CI)): 0.443 µM |
| CCCCCCCC/C=C\CCCCCCCC(=O)N[C@@H](Cc1c[nH]c2ccccc12)C(=O)O [oleoyl l-Tryptophan] | > 10 |  |  |  | 20.2 ± 1.7 (p=0.0001) % |  |  |
| CCCCCCCC/C=C\CCCCCCCC(=O)O[C@H](CC(=O)[O-])C[N+](C)(C)C [oleoyl L-Carnitine, reference compound] |  | 6.0 ± 3.2 (p=0.0001) % | 1.2 |  |  | > 3 | % Max. inhibition (% inhibition at the highest concentration of inhibitor used) ([3]; GlyT2 L569F, footnote b): 45.5 ± 7.0^b (p=0.0038) % |
| CCCCCCCC/C=C\CCCCCCCC(=O)N[C@@H](CC(=O)O)C(=O)O [oleoyl l-Aspartate] | > 10 |  |  |  | 4.9 ± 6.4 (p=0.0001) % |  |  |
| NCC(=O)O [Glycine] |  |  |  |  |  |  | EC50 ([2]; glycine transport, GlyT2 V432A (TM5)): 114 ± 21.6 µM; EC50 ([3]; glycine transport, GlyT2 L569F (TM8)): 7 ± 0.6 µM |
| CCCCC/C=C\C/C=C\C/C=C\C/C=C\CCCC(=O)NCC(=O)O [N-arachidonyl Glycine, reference compound] |  | 4.2 ± 3.2 (p=0.0018) % | 3.59 | 63.7 ± 19.0 (p=0.9990) % |  | > 10 |  |
| CCCCCCCC/C=C\CCCCCCCC(=O)NCC(=O)O [N-oleoyl Glycine, reference compound] |  |  |  | 32.5 ± 3.6 (p=0.0005) % |  | > 10 | % Max. inhibition (% inhibition at the highest concentration of inhibitor used) ([2]; GlyT2 V432A, footnote b): 1.9 ± 3.2^b (p=0.0001) %; IC50 ([3]; GlyT2 L569F, greater than maximum concentration applied (footnote a)): > 10 µM |
